Measurements published in US10479780B2, “Aminopyrazole derivatives” (Chugai Seiyaku Kabushiki Kaisha, priority 2015, dated 2019).

How the values were obtained:
Format in all cases: biochemical
[1] = target: T1, human Src enzyme (Homo sapiens, UniProt P12931); test: Src enzyme inhibitory activity (time-resolved fluorometry, biotinylated peptide phosphorylation); conditions: biotinylated peptide phosphorylation, read-out: SRC_IC50
T1 construct: purchased Carna Biosciences, Inc. 08-173
How it was run: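 Compounds were tested for blocking tyrosine phosphorylation of a biotinylated peptide substrate by recombinant human Src. Phosphorylated product was quantified by time-resolved fluorometry using europium cryptate and XL665 conjugates, and IC50 was calculated against the compound-free control.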

[2] = target: T2, human Yes1 enzyme (Homo sapiens, UniProt P07947); test: Yes1 enzyme inhibitory activity (time-resolved fluorometry, biotinylated peptide phosphorylation); conditions: biotinylated peptide phosphorylation, read-out: YES_IC50
T2 construct: made in house
How it was run: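 Inhibition was expressed against a compound-free control to give IC50, using TR-FRET read-out (Eu-cryptate anti-pTyr antibody, streptavidin-XL665).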

[3] = target: T3, human Lck enzyme (Homo sapiens, UniProt P06239); test: Lck enzyme inhibitory activity (time-resolved fluorometry, biotinylated peptide phosphorylation); conditions: biotinylated peptide phosphorylation, read-out: LCK_IC50
T3 construct: purchased Carna Biosciences, Inc. 08-170
How it was run: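 Readout pairs a europium cryptate-labelled anti-phosphotyrosine antibody with XL665-streptavidin, measured by time-resolved fluorescence. IC50 derived from percent inhibition against untreated controls.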

T3 sequence (P06239 whole entry): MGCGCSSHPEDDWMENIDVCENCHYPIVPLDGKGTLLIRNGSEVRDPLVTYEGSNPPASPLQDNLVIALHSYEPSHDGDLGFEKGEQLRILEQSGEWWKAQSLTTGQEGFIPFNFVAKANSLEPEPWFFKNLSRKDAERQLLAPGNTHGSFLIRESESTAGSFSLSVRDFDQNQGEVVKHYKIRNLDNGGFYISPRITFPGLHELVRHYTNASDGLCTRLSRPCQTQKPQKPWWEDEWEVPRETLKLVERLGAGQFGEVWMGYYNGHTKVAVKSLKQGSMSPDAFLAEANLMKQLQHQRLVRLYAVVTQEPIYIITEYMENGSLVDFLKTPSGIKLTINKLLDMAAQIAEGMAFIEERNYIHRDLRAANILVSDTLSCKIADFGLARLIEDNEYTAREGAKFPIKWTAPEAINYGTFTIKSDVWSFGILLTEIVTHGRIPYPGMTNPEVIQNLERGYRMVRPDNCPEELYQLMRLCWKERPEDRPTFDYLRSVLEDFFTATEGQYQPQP
T1 sequence (P12931 whole entry): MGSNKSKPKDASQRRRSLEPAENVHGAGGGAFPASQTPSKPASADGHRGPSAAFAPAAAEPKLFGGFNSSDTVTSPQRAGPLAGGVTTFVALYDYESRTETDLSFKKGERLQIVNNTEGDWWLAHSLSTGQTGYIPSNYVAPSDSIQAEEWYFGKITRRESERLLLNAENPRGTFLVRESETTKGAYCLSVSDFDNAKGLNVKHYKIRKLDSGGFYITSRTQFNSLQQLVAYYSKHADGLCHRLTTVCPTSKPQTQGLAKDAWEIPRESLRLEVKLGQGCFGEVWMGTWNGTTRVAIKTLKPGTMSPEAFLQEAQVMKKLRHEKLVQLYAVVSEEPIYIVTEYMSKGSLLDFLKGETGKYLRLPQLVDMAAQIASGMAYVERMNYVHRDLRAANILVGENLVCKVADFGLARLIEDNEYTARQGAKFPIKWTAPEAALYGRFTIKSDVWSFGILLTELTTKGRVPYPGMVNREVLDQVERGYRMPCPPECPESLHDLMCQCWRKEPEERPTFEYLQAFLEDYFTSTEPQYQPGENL
T2 sequence (P07947 whole entry): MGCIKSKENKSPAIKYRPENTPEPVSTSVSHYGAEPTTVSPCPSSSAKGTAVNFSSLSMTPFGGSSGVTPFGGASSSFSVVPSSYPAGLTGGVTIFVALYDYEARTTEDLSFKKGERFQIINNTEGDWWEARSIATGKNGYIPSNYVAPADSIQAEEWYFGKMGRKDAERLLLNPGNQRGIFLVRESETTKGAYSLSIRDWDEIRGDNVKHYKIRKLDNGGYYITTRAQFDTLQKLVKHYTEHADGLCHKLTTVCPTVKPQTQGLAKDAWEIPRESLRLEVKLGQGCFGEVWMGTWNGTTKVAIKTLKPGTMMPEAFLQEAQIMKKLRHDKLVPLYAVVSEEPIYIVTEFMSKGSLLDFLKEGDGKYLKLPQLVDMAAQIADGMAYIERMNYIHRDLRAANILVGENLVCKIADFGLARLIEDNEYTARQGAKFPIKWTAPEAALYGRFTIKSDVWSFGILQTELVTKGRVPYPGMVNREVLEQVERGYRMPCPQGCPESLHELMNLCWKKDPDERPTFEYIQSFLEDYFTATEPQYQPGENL

Compound	IC50 [1] [nM]	IC50 [2] [nM]	IC50 [3] [nM]
Cc1cc(Oc2cc(F)ccc2F)cc(F)c1-n1ncc(C(=O)c2cc3cc(F)c(NS(C)(=O)=O)cc3[nH]2)c1N [Example 4-7-007, N-[2-[5-amino-1-[4-(2,5-difluorophenoxy)-2-fluoro-6-methylphenyl]pyrazole-4-carbonyl]-5-fluoro-1H-indol-6-yl]methanesulfonamide]	190	2	41
Cc1cc(Oc2cc(F)ccc2F)cc(F)c1-n1ncc(C(=O)c2cc3cc(F)c(NS(=O)(=O)C4CC4)cc3[nH]2)c1N [Example 4-7-008, N-[2-[5-amino-1-[4-(2,5-difluorophenoxy)-2-fluoro-6-methylphenyl]pyrazole-4-carbonyl]-5-fluoro-1H-indol-6-yl]cyclopropanesulfonamide]	490	5.9	140
Cc1cc(Oc2ccccc2Cl)cc(F)c1-n1ncc(C(=O)c2cc3cc(F)c(NS(C)(=O)=O)cc3[nH]2)c1N [Example 4-7-009, N-[2-[5-amino-1-[4-(2-chlorophenoxy)-2-fluoro-6-methylphenyl]pyrazole-4-carbonyl]-5-fluoro-1H-indol-6-yl]methanesulfonamide]	150	3.7	34
Cc1cc(Oc2ccccc2Cl)cc(F)c1-n1ncc(C(=O)c2cc3cc(F)c(NS(=O)(=O)C4CC4)cc3[nH]2)c1N [Example 4-7-010, N-[2-[5-amino-1-[4-(2-chlorophenoxy)-2-fluoro-6-methylphenyl]pyrazole-4-carbonyl]-5-fluoro-1H-indol-6-yl]cyclopropanesulfonamide]	280	9	100
Cc1cc(Oc2cccc(Cl)c2)cc(F)c1-n1ncc(C(=O)c2cc3cc(F)c(NS(C)(=O)=O)cc3[nH]2)c1N [Example 4-7-011, N-[2-[5-amino-1-[4-(3-chlorophenoxy)-2-fluoro-6-methylphenyl]pyrazole-4-carbonyl]-5-fluoro-1H-indol-6-yl]methanesulfonamide]	200	14	97
Cc1cc(Oc2cccc(Cl)c2)cc(F)c1-n1ncc(C(=O)c2cc3cc(F)c(NS(=O)(=O)C4CC4)cc3[nH]2)c1N [Example 4-7-012, N-[2-[5-amino-1-[4-(3-chlorophenoxy)-2-fluoro-6-methylphenyl]pyrazole-4-carbonyl]-5-fluoro-1H-indol-6-yl]cyclopropanesulfonamide]	330	14	160
Cc1cc(Oc2ccccc2)cc(F)c1-n1ncc(C(=O)c2cc3cc(F)c(NS(C)(=O)=O)cc3[nH]2)c1N [Example 4-7-013, N-[2-[5-amino-1-(2-fluoro-6-methyl-4-phenoxyphenyl)pyrazole-4-carbonyl]-5-fluoro-1H-indol-6-yl]methanesulfonamide]	58	3	26
Cc1cc(Oc2ccccc2)cc(F)c1-n1ncc(C(=O)c2cc3cc(F)c(NS(=O)(=O)C4CC4)cc3[nH]2)c1N [Example 4-7-014, N-[2-[5-amino-1-(2-fluoro-6-methyl-4-phenoxyphenyl)pyrazole-4-carbonyl]-5-fluoro-1H-indol-6-yl]cyclopropanesulfonamide]	130	4.9	73
Cc1cc(Oc2ccccc2Cl)ncc1-n1ncc(C(=O)c2cc3cc(F)c(NS(=O)(=O)C4CC4)cc3[nH]2)c1N [Example 4-7-015, N-[2-[5-amino-1-[6-(2-chlorophenoxy)-4-methylpyridin-3-yl]pyrazole-4-carbonyl]-5-fluoro-1H-indol-6-yl]cyclopropanesulfonamide]	110	0.92	17
Cc1cc(Oc2cccc(Cl)c2)ncc1-n1ncc(C(=O)c2cc3cc(F)c(NS(=O)(=O)C4CC4)cc3[nH]2)c1N [Example 4-7-016, N-[2-[5-amino-1-[6-(3-chlorophenoxy)-4-methylpyridin-3-yl]pyrazole-4-carbonyl]-5-fluoro-1H-indol-6-yl]cyclopropanesulfonamide]	210	4.6	110
Cc1cc(Oc2ccccc2F)ccc1-n1ncc(C(=O)c2cc3cc(F)c(NS(=O)(=O)C4(CC(O)CO)CC4)cc3[nH]2)c1N (stereo not drawn) [Example 4-8-001, N-{2-{5-amino-1-[4-(2-fluorophenoxy)-2-methylphenyl]pyrazole-4-carbonyl}-5-fluoro-1H-indol-6-yl}-1-(2,3-dihydroxypropyl)cyclopropane-1-sulfonamide]	31	1.1	14
Cc1cc(Oc2ccccc2F)ncc1-n1ncc(C(=O)c2cc3cc(F)c(N4CCCS4(=O)=O)cc3[nH]2)c1N [Example 4-9-001, {5-amino-1-[6-(2-fluorophenoxy)-4-methylpyridin-3-yl]pyrazol-4-yl}-[6-(1,1-dioxo-1,2-thiazolidin-2-yl)-5-fluoro-1H-indol-2-yl]methanone]	13	0.46	2.5
Cc1cc(Oc2c(F)cccc2F)ncc1-n1ncc(C(=O)c2cc3cc(F)c(N4CCCS4(=O)=O)cc3[nH]2)c1N [Example 4-9-002, [5-amino-1-[6-(2,6-difluorophenoxy)-4-methylpyridin-3-yl]pyrazol-4-yl]-[6-(1,1-dioxo-1,2-thiazolidin-2-yl)-5-fluoro-1H-indol-2-yl]methanone]	9.8	0.72	0.96
CCN(CC)C(=O)CS(=O)(=O)Nc1cc2[nH]c(C(=O)c3cnn(-c4cnc(Oc5ccccc5F)cc4C)c3N)cc2cc1F [Example 4-10-001, 2-{{2-{5-amino-1-[6-(2-fluorophenoxy)-4-methylpyridin-3-yl]pyrazole-4-carbonyl}-5-fluoro-1H-indol-6-yl}sulfamoyl}-N,N-diethylacetamide]	86	2.1	18
Cc1cc(Oc2ccccc2F)ccc1-n1ncc(C(=O)c2cc3cc(F)c(NS(=O)(=O)CC(=O)NC(C)C)cc3[nH]2)c1N [Example 4-10-002, 2-[[2-[5-amino-1-[4-(2-fluorophenoxy)-2-methylphenyl]pyrazole-4-carbonyl]-5-fluoro-1H-indol-6-yl]sulfamoyl]-N-propan-2-ylacetamide]	27	0.77	11
Cc1cc(Oc2ccccc2F)ccc1-n1ncc(C(=O)c2cc3cc(F)c(NS(=O)(=O)CC(=O)N4CCN(C(C)C)CC4)cc3[nH]2)c1N [Example 4-10-003, N-[2-[5-amino-1-[4-(2-fluorophenoxy)-2-methylphenyl]pyrazole-4-carbonyl]-5-fluoro-1H-indol-6-yl]-2-oxo-2-(4-propan-2-ylpiperazin-1-yl)ethanesulfonamide 2,2,2-trifluoroacetate]	26	0.75	4.9
Cc1cc(Oc2ccccc2F)ccc1-n1ncc(C(=O)c2cc3cc(F)c(NS(=O)(=O)CC(=O)N4CCOCC4)cc3[nH]2)c1N [Example 4-10-004, N-[2-[5-amino-1-[4-(2-fluorophenoxy)-2-methylphenyl]pyrazole-4-carbonyl]-5-fluoro-1H-indol-6-yl]-2-morpholin-4-yl-2-oxoethanesulfonamide]	12	0.53	8.3
